# Reference: patent US20130029884A1, “BIOCIDE FORMULATIONS” (ENVIROSYSTEMS, INC., priority 2011, published 2013)
# Key:
# [1] = tested on: sulfate reducing bacteria (SRB); experiment: microbiological kill study in field water (bottle growth test), sulfate reducing bacteria; assay type: cell-based; conditions: field water from a well in Texas; active biocide 94 to 500 ppm tested
# Method: (§1) Microbiological studies were carried out with the formulation of Example 1 and compared to tests with other known biocides. The field water used for testing came from a well in Texas. The biocides were tested at varying concentrations of the active biocide in the field water at active biocide concentrations from 94 parts per million (ppm) to 500 ppm. The biocide of Example 1 was tested along with several known biocides.
# (§2) Microbiological kill studies were carried out in field waters considered to be problematic.
# (§3) A field water sample was used to dilute the formulation and growth media was added. […] For the SRB concentrations up to 150 ppm PCMX were studied. […] For the APB samples, concentrations of up to 100 ppm PCMX were studied. […] The diluted sample was also tested after the sample had experienced four freeze/thaw cycles and the sample with growth media added was tested with PCMX concentrations up to 100 ppm PCMX.
# (§4) For the 42 ppm hydrogen sulfide concentration water, testing was carried out with PCMX concentrations up to 100 ppm. […] For the 24 ppm hydrogen sulfide concentration water, testing was carried out with PCMX concentrations up to 125 ppm.
# [2] = tested on: acid producing bacteria (APB); experiment: microbiological kill study in field water (bottle growth test), acid producing bacteria; assay type: cell-based; conditions: field water from a well in Texas; active biocide 94 to 500 ppm tested
# Method: as §1, §2, §3, §4
# [3] = cited from earlier work
Molecule,active biocide concentration with complete kill of SRB [1] [ppm],active biocide concentration with complete kill of APB [2] [ppm],hydrolysis half life [3] [days]
"N#CC(Br)(Br)C(N)=O [DBNPA, dibromocyanoacetamide]",20,20,
O=CCCCC=O [glutaraldehyde],250,250,
CN1CSC(=S)N(C)C1 [Dazomet],> 270,> 270,0.15
tetrakis hydroxylmethyl phosphonium sulfate [THPS],150,150,
